Results on 50 compounds are retold here after EP0450097B1, “BENZOHETEROCYCLIC COMPOUNDS” (OTSUKA PHARMACEUTICAL CO., LTD., priority 1989, dated 1991).

One test deals with T1, V₁ receptor (Rattus norvegicus, UniProt P30560).
T1 construct: Using rat liver plasma membrane preparations; from tissue; host or cells: rat liver plasma membranes
Put plainly: V₁ receptor binding assay ([³H]-Arg-vasopressin, rat liver plasma membrane preparations). Conditions: 37°C for 10 minutes. As for the experimental part: Using rat liver plasma membrane preparations prepared according to Ichihara's method [cf: Akira Ichihara, J. Bio. Chem., 258, 9283 (1983)], the plasma membrane (50000dpm, 2x10⁻¹⁰ M) of [³H]-Arg-vasopressin and a test compound (60 µg, 10⁻⁸-10⁻⁴ M) are incubated at 37°C for 10 minutes in 100 mM Tris-HCl buffer (pH: 8.0, 250 µl) containing 5 mM MgCl₂, 1 mM EDTA and 0.1 % BSA. After incubation, the mixture is filtered three times using the glass filter (GF/F) so as to separate the membrane preparation combined with vasopressin and then washed with the buffer (5 ml). This glass filter is taken out and mixed with liquid scintillation cocktail. The amount of [³H]-vasopressin combined with the membrane is measured by liquid scintillation counter and the rate of the inhibitory effect of the test compound is estimated according to the following equation. Rate of the inhibitory effect (%) = 100 -(C1 - B1)/(C0 - B1)X 100 [formula] C¹: The amount of [³H]-vasopressin combined with the membrane in the presence of the test compound (in prescribed amount). C⁰: The amount of [³H]-vasopressin combined with the membrane in the absence of the test compound. B¹: The amount of [³H]-vasopressin combined with the membrane in the presence of the excess amount of vasopressin (10⁻⁶ M).
(§1) The results are expressed as IC₅₀ values, which is the concentration of the test compound required to achieve the inhibitory effect in the rate of 50 %.

The next test has as its target T2, V₂ receptor (Rattus norvegicus, UniProt Q00788).
T2 construct: Using rat kidney plasma membrane preparations; from tissue; host or cells: rat kidney plasma membranes
Put plainly: V₂ receptor binding assay ([³H]-Arg-vasopressin, rat kidney plasma membrane preparations). Particulars: 4°C for 3 hours. As for the experimental part:
Using rat kidney plasma membrane preparations prepared according to O. Hechter's method [cf: J. Bio. […] After incubation, the mixture is filtered using the glass filter (GF/F) so as to separate the membrane preparation combined with vasopressin and then washed twice with the buffer (5 ml). This glass filter is taken out and mixed with liquid scintillation cocktail. The amount of [³H]-vasopressin combined with the membrane is measured by liquid scintillation counter and the rate of the inhibitory effect of the test compound is estimated according to the following equation. Rate of the inhibitory effect (%) = 100 -(C1 - B1)/(C0 - B1)X 100 [formula] C¹: The amount of [³H]-vasopressin combined with the membrane in the presence of the test compound (in prescribed amount). C⁰: The amount of [³H)-vasopressin combined with the membrane in the absence of the test compound. B¹: The amount of [³H]-vasopressin combined with the membrane in the presence of the excess amount of vasopressin (10⁻⁶ M).
as §1

T2 sequence (Q00788 whole entry): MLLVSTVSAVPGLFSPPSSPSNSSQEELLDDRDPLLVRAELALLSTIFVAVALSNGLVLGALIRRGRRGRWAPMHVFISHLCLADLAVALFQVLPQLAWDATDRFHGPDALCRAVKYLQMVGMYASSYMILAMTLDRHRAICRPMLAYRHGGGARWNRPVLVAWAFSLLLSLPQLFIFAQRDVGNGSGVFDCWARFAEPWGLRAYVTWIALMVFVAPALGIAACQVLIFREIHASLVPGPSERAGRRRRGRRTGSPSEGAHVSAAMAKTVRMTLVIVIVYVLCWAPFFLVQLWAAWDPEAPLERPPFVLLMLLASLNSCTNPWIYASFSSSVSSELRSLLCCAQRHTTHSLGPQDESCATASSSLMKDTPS
T1 sequence (P30560 whole entry): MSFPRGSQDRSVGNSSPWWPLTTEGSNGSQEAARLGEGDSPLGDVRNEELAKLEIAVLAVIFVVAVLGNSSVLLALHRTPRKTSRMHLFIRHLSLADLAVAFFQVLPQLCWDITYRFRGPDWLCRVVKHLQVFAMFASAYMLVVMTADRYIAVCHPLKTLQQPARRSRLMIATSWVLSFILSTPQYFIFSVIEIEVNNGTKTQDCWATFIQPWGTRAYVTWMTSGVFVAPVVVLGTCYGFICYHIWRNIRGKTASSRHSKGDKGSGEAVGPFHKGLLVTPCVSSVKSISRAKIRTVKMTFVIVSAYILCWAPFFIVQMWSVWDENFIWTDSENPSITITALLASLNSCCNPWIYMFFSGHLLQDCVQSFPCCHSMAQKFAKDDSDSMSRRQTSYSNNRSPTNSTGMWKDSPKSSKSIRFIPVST

Consider `CCN(CC(=O)Nc1ccc(C(=O)N2CCCC(OCC(=O)N(C)C)c3ccccc32)cc1)c1ccccc1` (stereo not shown) [compound 313], for which the IC50 is 32 nM at V₁ receptor and 12 nM at V₂ receptor. Taken in the same sequence, the figures for `Cc1ccccc1C(=O)Nc1ccc(C(=O)N2CCCC(C)c3ccccc32)cc1` (stereo not shown) [compound 208] were 110 nM and 7 nM. On to `CNC1CCCN(C(=O)c2ccc(NC(=O)c3ccccc3C)c(OC)c2)c2ccc(Cl)cc21` (stereo not shown) [compound 323], for which the results for the IC50 on V₁ receptor and at V₂ receptor were 64 nM and 14 nM, respectively. On the same counts, the results for `Cc1ccccc1C(=O)Nc1ccc(C(=O)N2CCCC(NC3CCN(Cc4ccccc4)CC3)c3ccccc32)cc1` (stereo not shown) [compound 274] are 110 nM and 24 nM. As for `Cc1ccccc1C(=O)Nc1ccc(C(=O)N2CCCC(OCCCCN(C)C)c3ccccc32)cc1` (stereo not shown) [compound 161], the IC50 turned out to be 140 nM at V₁ receptor and 9 nM on V₂ receptor. `CC(C)NCCCCOc1ccccc1C(=O)Nc1ccc(C(=O)N2CCCCc3ccccc32)cc1` [compound 68]: the 50% inhibitory concentration (IC50) is 13 nM on V₁ receptor and 190 nM at V₂ receptor.

In the case of `CN(C)C1CCCN(C(=O)c2ccc(NC(=O)c3ccccc3Br)cc2)c2ccccc21` (stereo not shown) [compound 309], the IC50 at V₁ receptor amounted to 430 nM; on V₂ receptor, 15 nM. On the same counts, the results for `CCN(CC)C(=O)COc1ccccc1C(=O)Nc1ccc(C(=O)N2CCCCc3ccccc32)cc1` [compound 124] are 150 nM and 130 nM.

As for `CNC1CCCN(C(=O)c2ccc(NC(=O)c3ccccc3C)cc2)c2ccc(Cl)cc21` (stereo not shown) [compound 287], the IC50 was 64 nM on V₁ receptor and 7 nM at V₂ receptor. Consider `CC(=O)NCCCCOc1ccccc1C(=O)Nc1ccc(C(=O)N2CCCCc3ccccc32)cc1` [compound 72], for which the IC50 is 120 nM at V₁ receptor and 160 nM on V₂ receptor. With `Cc1ccccc1C(=O)Nc1ccc(C(=O)N2CC(C)Cc3ccccc32)cc1` (stereo not shown) [compound 46], the figures for the IC50 on V₁ receptor and at V₂ receptor were 400 nM and 18 nM, respectively. Regarding `O=C(Nc1ccc(C(=O)N2CCCCc3ccccc32)cc1)c1cccc(Cl)c1` [compound 30], the values for the IC50 on V₁ receptor and at V₂ receptor were 150 nM and 29 nM, respectively.

In the case of `Cc1cccc(C)c1C(=O)Nc1ccc(C(=O)N2CCCCc3ccccc32)cc1` [compound 64], the figures for the IC50 on V₁ receptor and on V₂ receptor were 69 nM and 7 nM, respectively.

Take `CCN(CC)CCOc1ccccc1C(=O)Nc1ccc(C(=O)N2CCCCc3ccccc32)cc1` [compound 71]: the values for the IC50 on V₁ receptor and on V₂ receptor were 180 nM and 85 nM, respectively. Taken in the same sequence, the figures for `COC1CCCN(C(=O)c2ccc(NC(=O)c3ccccc3C)cc2)c2ccccc21` (stereo not shown) [compound 147] were 280 nM and 9 nM. `NCCCCOc1ccccc1C(=O)Nc1ccc(C(=O)N2CCCCc3ccccc32)cc1` [compound 70]: the figures for the IC50 at V₁ receptor and on V₂ receptor were 41 nM and 12 nM, respectively. Taken in the same sequence, the figures for `Cc1ccccc1C(=O)Nc1ccc(C(=O)N2CCSCc3ccccc32)cc1` [compound 192] were 54 nM and 11 nM. With `Cc1ccccc1C(=O)Nc1ccc(C(=O)N2CCCC(OCC(=O)NCc3ccncc3)c3ccccc32)cc1` (stereo not shown) [compound 290], the half-inhibitory concentration (IC50) turned out to be 210 nM at V₁ receptor and 21 nM at V₂ receptor.

For the compound `Cc1ccccc1C(=O)Nc1ccc(C(=O)N2CCCC(NC3CC3)c3cc(Cl)ccc32)cc1` (stereo not shown) [compound 310], the IC50 at V₁ receptor amounted to 65 nM; on V₂ receptor, 8 nM.

Take `CC(=O)NCC1CCCN(C(=O)c2ccc(NC(=O)c3ccccc3C)cc2)c2ccccc21` (stereo not shown) [compound 255]: the IC50 on V₁ receptor was determined as 46 nM; at V₂ receptor it was 5 nM. As to `Cc1ccccc1C(=O)Nc1ccc(C(=O)N2CCCC(CN=[N+]=[N-])c3ccccc32)cc1` (stereo not shown) [compound 250], the IC50 at V₁ receptor was determined as 190 nM; on V₂ receptor it was 120 nM. For `O=C(Nc1ccc(C(=O)N2CCCCc3ccccc32)cc1)c1cccc(O)c1` [compound 69], the IC50 on V₁ receptor came to 66 nM; at V₂ receptor it was 120 nM.

`CCOC(=O)COc1ccccc1C(=O)Nc1ccc(C(=O)N2CCCCc3ccccc32)cc1` [compound 121]: the IC50 on V₁ receptor was determined as 450 nM; on V₂ receptor it was 180 nM. `O=C(Nc1ccc(C(=O)N2CCCCc3ccccc32)cc1)C1CCCCC1` [compound 26]: the IC50 worked out at 71 nM at V₁ receptor and 25 nM on V₂ receptor. Turning to `Cc1ccccc1C(=O)Nc1ccc(C(=O)N2CCCC(OCC(=O)N3CCSCC3)c3ccccc32)cc1` (stereo not shown) [compound 279], the results for the IC50 at V₁ receptor and on V₂ receptor were 150 nM and 8 nM, respectively. Take `CCN(CC(=O)Nc1ccc(C(=O)N2CCCC(N(C)C)c3cc(Cl)ccc32)cc1)c1ccccc1` (stereo not shown) [compound 308]: the half-inhibitory concentration (IC50) on V₁ receptor amounted to 110 nM; on V₂ receptor it was 23 nM. For `CC(C)NCCCCOc1ccccc1C(=O)Nc1ccc(C(=O)N2CCCC(O)c3ccccc32)cc1` (stereo not shown) [compound 312], the IC50 on V₁ receptor turned out to be 56 nM; on V₂ receptor, 290 nM.

Turning to `Cc1ccccc1C(=O)Nc1ccc(C(=O)N2CCCC(N(C)CC(N)=O)c3ccccc32)cc1` (stereo not shown) [compound 266], the IC50 on V₁ receptor turned out to be 290 nM; at V₂ receptor, 13 nM.

Take `CNC(=O)COC1CCCN(C(=O)c2ccc(NC(=O)c3ccccc3Cl)cc2)c2ccccc21` (stereo not shown) [compound 195]: the IC50 at V₁ receptor is 170 nM; on V₂ receptor, 10 nM. On the same counts, the results for `C=CCN(CC(=O)Nc1ccc(C(=O)N2CCCCc3ccccc32)cc1)c1ccccc1` [compound 115] are 12 nM and 6 nM. For the compound `COc1cc(OC)cc(C(=O)Nc2ccc(C(=O)N3CCCCc4ccccc43)cc2)c1` [compound 60], the IC50 at V₁ receptor was determined as 180 nM; at V₂ receptor, 150 nM. Turning to `Cc1ccccc1C(=O)Nc1ccc(C(=O)N2CCCC(OCC(=O)N3CCN(C)CC3)c3ccccc32)cc1` (stereo not shown) [compound 277], the IC50 at V₁ receptor came out at 230 nM; at V₂ receptor, 16 nM. Taken in the same sequence, the figures for `Cc1ccccc1C(=O)Nc1ccc(C(=O)N2CCCC(CO)c3ccccc32)cc1` (stereo not shown) [compound 215] were 130 nM and 6 nM. On the same counts, the results for `O=C(Nc1ccc(C(=O)N2CCCCc3ccccc32)cc1)c1ccccc1OCCCCO` [compound 120] are 290 nM and 280 nM. Turning to `CN(CCO)CCOc1ccccc1C(=O)Nc1ccc(C(=O)N2CCCCc3ccccc32)cc1` [compound 125], the values for the concentration for half-maximal inhibition (IC50) on V₁ receptor and at V₂ receptor were 91 nM and 280 nM, respectively.

Turning to `Cc1ccccc1C(=O)Nc1ccc(C(=O)N2CCCC(CN(C)C)c3ccccc32)cc1` (stereo not shown) [compound 268], the IC50 on V₂ receptor amounted to 18 nM. As for `CN(C)C1c2ccccc2N(C(=O)c2ccc(NC(=O)c3ccccc3Cl)cc2)CCC1O` (stereo not shown) [compound 216], at V₂ receptor, the IC50 stood at 910 nM.

`CNC1CCCCN(C(=O)c2ccc(NC(=O)c3ccccc3C)cc2)c2ccccc21` (stereo not shown) [compound 320] returned an IC50 on V₂ receptor of 39 nM. Consider `CCNC1CCCN(C(=O)c2ccc(NC(=O)c3ccccc3C)cc2)c2ccccc21` (stereo not shown) [compound 229], for which, on V₂ receptor, the IC50 was found to be 29 nM. This IC50 and that of the compound before are within 1.5-fold of each other.

`Cc1ccccc1C(=O)Nc1ccc(C(=O)N2CCCC(N(C)C)c3ccccc32)c(F)c1` (stereo not shown) [compound 226] registered an IC50 on V₂ receptor of 19 nM. On the same count and under the same terms, to `Cc1ccccc1C(=O)Nc1ccc(C(=O)N2CCC[S+]([O-])c3ccccc32)cc1` (stereo not shown) [compound 171] belongs 870 nM; to `CCN(C)C1CCCN(C(=O)c2ccc(NC(=O)c3ccccc3Cl)cc2Cl)c2ccccc21` (stereo not shown) [compound 314], 96 nM.

For `CN(C)C1CCCN(C(=O)c2ccc(NC(=O)Cc3ccccc3)cc2)c2ccccc21` (stereo not shown) [compound 305], the IC50 on V₂ receptor is 38 nM. On the same count and under the same terms, the same measure for `Cc1cc(NC(=O)c2ccccc2Cl)ccc1C(=O)N1CCCC(N(C)C)c2ccccc21` (stereo not shown) [compound 219]: 23 nM; for `CN(C)C1CCCN(C(=O)c2ccc(NC(=O)c3ccccc3Cl)cc2F)c2ccccc21` (stereo not shown) [compound 223]: 22 nM.

For `Cc1ccccc1C(=O)Nc1ccc(C(=O)N2CCCC(NC(=O)CNC(=O)OC(C)(C)C)c3ccccc32)cc1` (stereo not shown) [compound 301], the half-maximal inhibitory concentration (IC50) at V₂ receptor was 140 nM. For the compound `COc1cc(C(=O)N2CCCC(N(C)C)c3ccccc32)ccc1NC(=O)c1ccc(Cl)cc1Cl` (stereo not shown) [compound 248], the IC50 at V₂ receptor came to 60 nM. Still for that read-out and setting: the same measure for `CN(C)C1CCCN(C(=O)c2ccc(NC(=O)c3cc(F)cc(F)c3)cc2)c2ccccc21` (stereo not shown) [compound 230]: 20 nM; for `CN1CCN(C2CCCN(C(=O)c3ccc(NC(=O)c4ccccc4Cl)cc3)c3ccccc32)CC1` (stereo not shown) [compound 206]: 88 nM. The same measure, in the same setting: the same measure for `N#Cc1cccc(C(=O)Nc2ccc(C(=O)N3CCCc4ccccc43)cc2)c1` [compound 4]: 580 nM.

The term IC50 denotes the midpoint of a concentration-inhibition curve.
